Results on 4 compounds are retold here after ChEMBL document CHEMBL1201862, “PubChem BioAssay data set” (2004).

Common to all, as to assay: growth of human tumour cells (NCI), 48 h
Assay [1] relates to 786-0.
Assay [2] concerns ACHN.
The subject of assay [3] is CAKI-1.
Assay [4] concerns CCRF-CEM.
For assay [5], the system named is EKVX.
In assay [6] the test system is HCT-116.
Assay [7] has as its system HL-60.
Assay [8] deals with HOP-62.
Assay [9] deals with HT-29.
Assay [10] has as its system MDA-MB-231.
For assay [11], the system named is MDA-MB-435.
Assay [12] has as its system MDA-N.
Assay [13] has as its system NCI-H460.
Assay [14] concerns OVCAR-8.
Assay [15] deals with PC-3.
For assay [16], the system named is RPMI-8226.
Assay [17] relates to SNB-75.
Assay [18] relates to TK-10.
In assay [19] the test system is UACC-62.
The test system of assay [20] is UO-31.

Each structure is given as a SMILES string.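 Protocol summary: plate cells (96-well), add compound at 5 concentrations, incubate 48 h, interpolate endpoints linearly. GI50: concentration for 50% inhibition of growth.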 Activity calls are given as the source filed them. Rule as the data show it: active = GI50 up to about 1.1 µM and inactive = higher. Where only a bound is given, the exact number is not on record here.

For the compound `NCCc1ccc(S(=O)(=O)O)cc1[N+](=O)[O-]`, the GI50 in assay [1], in [2], in assay [3], in assay [4], in assay [5] and in assay [6] was > 100 µM (inactive) throughout. The GI50 in [7], in assay [8], in assay [9], in [10], in [11] and in assay [12] was > 100 µM (inactive) in each case. The GI50 in assay [13], in assay [14], in assay [15], in assay [16], in assay [17] and in assay [18] was > 100 µM (inactive) throughout. The GI50 in assay [19] and in assay [20] was > 100 µM (inactive) each time.

Take `NCCOc1cccc(C2(N3CCCCC3)CCCCC2)c1`: the GI50 in assay [1] was 13.3 µM (inactive); in assay [2], > 100 µM (inactive); in [3], 94 µM (inactive); in [4], 16.7 µM (inactive); in assay [5], 21.5 µM (inactive); in assay [6], 16.2 µM (inactive). In addition, the GI50 is 25 µM (inactive) in assay [7]; 92.5 µM (inactive) in assay [8]; 15.5 µM (inactive) in assay [9]; 21 µM (inactive) in assay [10]; 17.1 µM (inactive) in assay [11]; 18.5 µM (inactive) in assay [12]. Moreover, the GI50 was 41.5 µM (inactive) in assay [13]; 33.4 µM (inactive) in assay [14]; 31.5 µM (inactive) in [15]; 20.9 µM (inactive) in assay [16]; 32.7 µM (inactive) in [17]; 33.7 µM (inactive) in [18]. For the same compound, the GI50 in assay [19] is 20.2 µM (inactive); in assay [20], 13.7 µM (inactive).

Take `CN[C@@H](C)[C@H](OP(=O)(O)OC1[C@@H](O)[C@H](O)C(O)[C@H](O)[C@@H]1O)c1ccccc1` (stereo not given in full): the GI50 in assay [1], in assay [2], in assay [3], in assay [4], in assay [5] and in assay [6] was > 100 µM (inactive) in each case. For the same compound, the GI50 in [7], in assay [8], in assay [9], in assay [10], in [11] and in assay [12] was > 100 µM (inactive) each time. Moreover, the GI50 in [13], in assay [14], in [15], in assay [16], in assay [17] and in assay [18] was > 100 µM (inactive) in each case. Also, the GI50 in assay [19] and in assay [20] was > 100 µM (inactive) each time.

Consider `CCN(CC)CC(C)(C)C(=O)/C=C/c1ccc(/C=C/C(=O)C(C)(C)CN(CC)CC)cc1`, for which the GI50 in assay [1] was 0.182 µM (active); in assay [2], 1.34 µM (inactive); in assay [3], 0.733 µM (active); in [4], 0.0646 µM (active); in [5], 1.63 µM (inactive); in [6], 0.334 µM (active). Moreover, the GI50 in [7] is 0.0499 µM (active); in [8], 1.95 µM (inactive); in assay [9] it was 0.211 µM (active); in [10], 0.206 µM (active); in assay [11], 0.897 µM (active); in assay [12], 0.44 µM (active). Moreover, the GI50 is 0.427 µM (active) in [13]; 0.259 µM (active) in assay [14]; 0.414 µM (active) in [15]; 0.157 µM (active) in assay [16]; 1.61 µM (inactive) in [17]; 1.19 µM (inactive) in assay [18]. The GI50 in assay [19] is 1.46 µM (inactive); in assay [20], 1.8 µM (inactive).
